Where two headings read alike, the source gives them in different places.
How the values were obtained:
mRNA of ZmCip1 [1] = details: 5 μM, 100 minutes, nitrogen-deficient leaves
Procedure: (§1) The cut leaves of the maize cultivated under the low-nitrogen condition as mentioned above were treated with 16 mM NaNO3 solution or with 0.08 mM NaNO3 solution for 0 hour, 2 hours, 5 hours, […] or 24 hours and Northern analysis was carried out in the same manner as in (4) except that the weight of the RNAs applied to each gel was 20 μg, respectively, and that a non-coding region of ZmCip1 was used as a probe.
The cut leaves of the maize cultivated under the low-nitrogen condition as mentioned above were treated with 5 μM t-zeatin, 5 μM zeatin-O-glucoside or with water for 100 minutes, and Northern analysis was performed in the same manner as in (5), except that the amount of the RNAs applied to each gel was 15 μg.

mRNA of ZmCip1 [2] = details: 10^−11 to 10^−7 M tested, 100 or 180 minutes, cut leaves
Procedure: as §1

mRNA of ZmCip1 [3] = assay: Northern analysis after t-zeatin, benzyladenine or abscisic acid treatment of cut leaves; type: cell-based, maize (Zea mays L.cv. Golden Cross Bantam T51); details: 100 or 180 minutes, nitrogen-deficient leaves
Procedure: (§2) The cut leaves of the maize cultivated under the low-nitrogen condition as mentioned above was treated with 5 μM t-zeatin or with water for 0 minute, 30 minutes, 45 minutes, 60 minutes or 90 minutes, and the ⅓ portions from the distal ends of the leaves was collected. After freezing the collected leaves with liquid nitrogen, RNAs were extracted by the guanidine thiocyanate/cesium chloride method. Ten micrograms of the obtained RNAs were fractionated by formaldehyde gel (1%) electrophoresis and the resultant was transferred to a nylon membrane. Hybridization was performed using ZmCip1 cDNA or maize ubiquitin gene as a probe.
(10) The cut leaves of the maize cultivated under the low-nitrogen condition as mentioned above were treated with 5 μM t-zeatin, 5 μM benzyladenine, 10 μM±abscisic acid or with water for 100 minutes or 180 minutes, and Northern analysis was performed as in (4).

mRNA of ZmCip1 [4] = details: 5 μM, nitrogen-deficient maize green leaves
Procedure: as §2

mRNA of ZmCip 1 = assay: Northern analysis of induction of expression of CIP1 by cytokinin treatment and cycloheximide treatment; type: cell-based, maize (Zea mays L.cv. Golden Cross Bantam T51); details: as printed under experiment (8), nitrogen-deficient maize green leaves
Procedure: as §1
The cut leaves of the maize cultivated under the low-nitrogen condition as mentioned above were treated (i) with water for 60 minutes and then with water for 90 minutes, (ii) with water for 60 minutes and then with 5 μM t-zeatin for 90 minutes, (iii) with 20 μg/ml of cycloheximide for 60 minutes and then with 20 μg/ml cycloheximide and 5 μM t-zeatin for 90 minutes, or (iv) with 20 μg/ml of cycloheximide for 60 minutes and then with 20 μg/ml of cycloheximide for 90 minutes, and Northern analysis was performed in the same manner as in (5) except that the amount of the RNAs applied to each gel was 30 μg.

mRNA of ZmCip1 [5] = assay: Northern analysis of induction of expression of CIP1 by ammonium ion, cut leaves; type: cell-based, maize (Zea mays L.cv. Golden Cross Bantam T51); details: 6 mM NH4+, nitrogen-deficient maize green leaves
Procedure: as §1
The cut leaves of the maize cultivated under the low-nitrogen condition as mentioned above were treated with 6 mM NH4^+ solution or with 0.08 mM NaNO3 solution for 0 to 7 hours and Northern analysis was carried out in the same manner as in (5) except that the weight of the RNAs applied to each gel was 15 μg.

mRNA of ZmCip1 [6] = system: mRNA of ZmCip1
Procedure: as §2, §1

mRNA of ZmCip1 [7] = details: 16 mM NaNO3, 5 hours after treatment
Procedure: as §1
The maize cultivated under the low-nitrogen condition as mentioned above was treated with 16 mM NaNO3 solution or with 0.08 mM NaNO3 solution for 5 hours, and its leaf blades, leaf sheaths and roots were separately collected, followed by Northern analysis in the same manner as in (5) except that the amount of the RNAs from leaf sheaths or roots applied to each gel was 30 μg.

Procedure for ZmCip1 gene: (3) Assay of Induction of Expression of CIP 1 by Cytokinin Treatment (Run-Off Transcription Assay) Run-off transcription assay for expression of ZmCip1 gene was carried out. Nuclei were isolated from maize mesophyll cells and its RNA synthesis activity was measured according to a reported method (I. Suzuki, C. Cretin, T. Omata, T. Sugiyama, Plant Physiol.105:1223,1994). The RNAs synthesized by the isolated nuclei were fractionated by formaldehyde gel electrophoresis and the fractionated RNAs were transferred to a nylon membrane, followed by hybridization with ^32P-labeled ZmCip 1 cDNA or C4Ppc1 cDNA. The intensity of the detected signal was measured by Bio Imaging Analyzer (BAS2000, Fuji Film).

## C/C(=C\CNc1ncnc2[nH]cnc12)CO [t-zeatin]
ZmCip1 gene; cut leaves of maize cultivated under low-nitrogen condition, nuclei from mesophyll cells
  treatment time that causes transcription of ZmCip1 mRNA: 20 min
ZmCip1 gene; same leaves treated with t-zeatin
  timing of ZmCip1 transcription compared with transcription of C4Ppc1 mRNA: much earlier stage
mRNA of ZmCip1 [1]
  induction of expression of ZmCip1 mRNA: induced
mRNA of ZmCip1 [2]
  low level of t-zeatin at which expression of ZmCip1 mRNA was induced: 10^−9 M
mRNA of ZmCip1 [3]; 5 μM
  induction of expression of ZmCip1 mRNA: induced
mRNA of ZmCip1 [4]
  time after treatment at which accumulation of ZmCip1 mRNA was confirmed: 30 min
  time after treatment at which the gene was strongly expressed: 45 to 90 min

## c1ccc(CNc2ncnc3nc[nH]c23)cc1 [benzyladenine]
mRNA of ZmCip1 [3]; 5 μM
  induction of expression of ZmCip1 mRNA: induced

## N [ammonium ion]
mRNA of ZmCip 1
  time after treatment at which ZmCip1 mRNA was confirmed: 5 h
  time after treatment at which the gene was strongly expressed: 6 to 7 h
mRNA of ZmCip1 [5]
  time after treatment at which ZmCip1 mRNA was confirmed: 5 h
  time after treatment at which the gene was strongly expressed: 6 to 7 h

## CC1=CC(=O)CC(C)(C)[C@@]1(O)/C=C/C(C)=C\C(=O)O [abscisic acid]
mRNA of ZmCip1 [3]; 10 μM
  induction of expression of ZmCip1 mRNA: slightly induced

## zeatin-O-glucoside
mRNA of ZmCip1 [1]
  induction of expression of ZmCip1 mRNA: induced

## O=[N+]([O-])[O-].[Na+] [nitrate ion, NaNO3]
mRNA of ZmCip1 [6]; 16 mM NaNO3, 24 hours
  expression of the gene 24 hours after the treatment: scarcely observed
mRNA of ZmCip1 [6]; 16 mM NaNO3, nitrogen-deficient green leaves
  time after treatment at which accumulation of ZmCip1 mRNA was confirmed: 5 to 6 h
mRNA of ZmCip1 [7]; nitrogen-deficient maize green leaves
  accumulation of ZmCip1 mRNA in green leaves: confirmed
mRNA of ZmCip1 [7]; roots
  expression of ZmCip1 mRNA in roots: scarcely observed
